Data on 17 compounds can be found in patent US20200131669A1, “CYCLIC PEPTIDE COMPOUND HAVING HIGH MEMBRANE PERMEABILITY, AND LIBRARY CONTAINING SAME” (Chugai Seiyaku Kabushiki Kaisha, priority 2017, published 2020).

As a reminder, the Papp A→B is the apparent permeability from the apical to the basolateral side of a cell layer. The low end stands for slow passage, the high end for fast passage.

Structures are written as SMILES. Starred links: 1 amine or outer side, 2 acyl side, 3 side chain; linkers in the order of their positions; H or OH if unused. Positions of bridges follow the written chain, without caps; N, C: chain ends. Non-standard residues stand in square brackets, D forms with d. Residues, ends and D or L forms follow the SMILES beside them. *: point of attachment. NMePhe(3-Cl) = CN[C@@H](Cc1cccc(Cl)c1)C(=O)O; Gly(NCH2CH2Ph) = O=C(O)CNCCc1ccccc1; X9 = O=C(CN(CCOc1ccccc1)[*:1])[*:2]; Gly(N-(CH2)2OEt) = CCOCCNCC(=O)O; NMeF = CN[C@@H](Cc1ccccc1)C(=O)O; NMeI = CC[C@H](C)[C@H](NC)C(=O)O; NMeL = CN[C@@H](CC(C)C)C(=O)O; Propyl(2R-OH) = C[C@@H](O)C*; NMeV = CN[C@H](C(=O)O)C(C)C; NMeAbu = CC[C@H](NC)C(=O)O; NMeA = CN[C@@H](C)C(=O)O; Piperidide = C1CCN(*)CC1; Abu = CC[C@H](N)C(=O)O; NBuGly = CCCCNCC(=O)O; NPrGly = CCCNCC(=O)O; Sar = CNCC(=O)O; tBu = CC(C)(C)*

The nature of the series: Caco-2 membrane permeability, improved method as used in the following Examples (96-well, 20 to 24 h preincubation). It counts as in vitro ADME. As to conditions: human, Caco-2, Caco-2. The method, boiled down:
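Papp (cm/sec) was derived from LC/MS of basal samples collected 180 min after apical dosing in FaSSIF/HBSS pH 6.0 with 1% DMSO, against a basal HBSS pH 7.4 receiver containing 4% BSA. Three-week Caco-2 cultures were first preincubated with compound in DMEM+FaSSIF at 37 °C for 20–24 h.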
Background: Passage across Caco-2 layers is used to estimate intestinal permeability.
`CC[C@H]1C(=O)N[C@@H]([C@@H](C)O)C(=O)N(CCc2ccccc2)CC(=O)N(C)[C@@H](CC(C)C)C(=O)N[C@H](COC(C)(C)C)C(=O)N(C)[C@@H](CC(C)C)C(=O)N(C)[C@@H](CC)C(=O)N[C@H](C(=O)N2CCCCC2)CC(=O)N[C@H](C)C(=O)N(C)[C@@H](Cc2ccccc2)C(=O)N[C@@H](CC(C)C)C(=O)N1C` [pd409] ([dA][NMeF]L[NMeAbu]T[Gly(NCH2CH2Ph)][NMeL][dS](tBu)[NMeL][NMeAbu]D-Piperidide; lactam N-11) yielded a Papp A→B at 180 min of 1.4 ×10⁻⁶ cm/s.

The compound `CC[C@H]1C(=O)N(C)[C@@H](Cc2ccccc2)C(=O)N[C@@H](C)C(=O)N(C)[C@@H](CC(C)C)C(=O)N(C)[C@@H](CC)C(=O)N[C@@H]([C@@H](C)O)C(=O)N(CCc2ccccc2)CC(=O)N(C)[C@@H](CC(C)C)C(=O)N[C@H](C(=O)N2CCCCC2)CC(=O)N(C)[C@@H](C(C)C)C(=O)N[C@@H](CC(C)C)C(=O)N1C` [pd410] ([NMeV]L[NMeAbu][NMeF]A[NMeL][NMeAbu]T[Gly(NCH2CH2Ph)][NMeL]D-Piperidide; lactam N-11) showed a Papp A→B at 180 min of 6 ×10⁻⁶ cm/s.

In turn, `CC[C@H](C)[C@@H]1NC(=O)[C@H](CC(C)C)N(C)C(=O)CN(C)C(=O)C[C@@H](C(=O)N2CCCCC2)NC(=O)[C@H](CC(C)C)N(C)C(=O)[C@@H](COC(C)(C)C)NC(=O)[C@H](CC)N(C)C(=O)[C@H](Cc2ccccc2)N(C)C(=O)CN(CCc2ccccc2)C(=O)[C@H]([C@@H](C)O)NC(=O)[C@H](CC)N(C)C1=O` [pd411] ([Sar][NMeL]I[NMeAbu]T[Gly(NCH2CH2Ph)][NMeF][NMeAbu][dS](tBu)[NMeL]D-Piperidide; lactam N-11) registered a Papp A→B at 180 min of 3.3 ×10⁻⁶ cm/s.

`CC[C@H]1C(=O)N[C@@H]([C@@H](C)O)C(=O)N(C)CC(=O)N(C)[C@@H](Cc2ccccc2)C(=O)N(C)[C@@H](CC)C(=O)N[C@@H](COC(C)(C)C)C(=O)N(C)[C@@H](CC(C)C)C(=O)N[C@H](C(=O)N2CCCCC2)CC(=O)N(CCc2ccccc2)CC(=O)N(C)[C@@H](CC(C)C)C(=O)N[C@@H](CC(C)C)C(=O)N1C` [pd412] ([Gly(NCH2CH2Ph)][NMeL]L[NMeAbu]T[Sar][NMeF][NMeAbu]S(tBu)[NMeL]D-Piperidide; lactam N-11) displayed a Papp A→B at 180 min of 1.5 ×10⁻⁶ cm/s.

In turn, `CC[C@H](C)[C@@H]1NC(=O)[C@H](CC(C)C)N(C)C(=O)[C@@H](CC(C)C)NC(=O)C[C@@H](C(=O)N2CCCCC2)NC(=O)[C@H](CC(C)C)N(C)C(=O)[C@H](Cc2ccccc2)N(C)C(=O)[C@H](COC(C)(C)C)NC(=O)CN(CCc2ccccc2)C(=O)CN(C)C(=O)[C@H]([C@@H](C)O)NC(=O)[C@H](CC)N(C)C1=O` [pd413] ([dL][NMeL]I[NMeAbu]T[Sar][Gly(NCH2CH2Ph)]S(tBu)[NMeF][NMeL]D-Piperidide; lactam N-11) displayed a Papp A→B at 180 min of 1.5 ×10⁻⁶ cm/s.

For the compound `CC[C@H](C)[C@@H]1NC(=O)[C@H](CC(C)C)N(C)C(=O)[C@@H](C)NC(=O)C[C@@H](C(=O)N2CCCCC2)NC(=O)[C@H](CC)N(C)C(=O)[C@H](Cc2ccccc2)N(C)C(=O)[C@H](COC(C)(C)C)NC(=O)[C@H](CC(C)C)N(C)C(=O)[C@H](CC)N(C)C(=O)[C@H]([C@@H](C)O)NC(=O)CN(CCc2ccccc2)C1=O` [pd414] ([dA][NMeL]I[Gly(NCH2CH2Ph)]T[NMeAbu][NMeL]S(tBu)[NMeF][NMeAbu]D-Piperidide; lactam N-11), the Papp A→B at 180 min worked out at 1.6 ×10⁻⁶ cm/s.

In the case of `CC[C@@H]1NC(=O)[C@H](Cc2ccccc2)N(C)C(=O)[C@H](CC(C)C)N(C)C(=O)[C@H](CC(C)C)NC(=O)[C@H](CC)N(C)C(=O)C[C@@H](C(=O)N2CCCCC2)NC(=O)[C@H](CC(C)C)N(C)C(=O)CN(C)C(=O)[C@H]([C@@H](C)O)NC(=O)CN(CCc2ccccc2)C(=O)[C@H](CC(C)C)N(C)C1=O` [pd415] ([NMeAbu]L[NMeL][NMeF][Abu][NMeL][Gly(NCH2CH2Ph)]T[Sar][NMeL]D-Piperidide; lactam N-11), the Papp A→B at 180 min came to 3.3 ×10⁻⁶ cm/s.

`CCOCCN1CC(=O)N(C)[C@@H](CC(C)C)C(=O)N[C@@H](COC(C)(C)C)C(=O)N(C)[C@@H](Cc2ccccc2)C(=O)N(C)[C@@H](CC)C(=O)N[C@H](C(=O)N2CCCCC2)CC(=O)N[C@H](CC(C)C)C(=O)N(C)[C@@H](Cc2ccccc2)C(=O)N[C@@H](CC(C)C)C(=O)N(C)[C@@H](CC)C(=O)N[C@@H]([C@@H](C)O)C1=O` [pd416] ([dL][NMeF]L[NMeAbu]T[Gly(N-(CH2)2OEt)][NMeL]S(tBu)[NMeF][NMeAbu]D-Piperidide; lactam N-11) yielded a Papp A→B at 180 min of 3.1 ×10⁻⁶ cm/s.

In turn, `CCOCCN1CC(=O)N(C)[C@@H](CC(C)C)C(=O)N[C@H](C(=O)N2CCCCC2)CC(=O)N(C)[C@@H](C(C)C)C(=O)N[C@@H](CC(C)C)C(=O)N(C)[C@@H](CC)C(=O)N(C)[C@@H](Cc2ccccc2)C(=O)N[C@@H](CC(C)C)C(=O)N(C)[C@@H](Cc2ccccc2)C(=O)N(C)[C@@H](CC)C(=O)N[C@@H]([C@@H](C)O)C1=O` [pd417] ([NMeV]L[NMeAbu][NMeF]L[NMeF][NMeAbu]T[Gly(N-(CH2)2OEt)][NMeL]D-Piperidide; lactam N-11) returned a Papp A→B at 180 min of 1 ×10⁻⁶ cm/s.

Consider `CCOCCN1CC(=O)N(C)[C@@H](Cc2ccccc2)C(=O)N(C)[C@@H](CC(C)C)C(=O)N[C@@H](COC(C)(C)C)C(=O)N(C)[C@@H](CC(C)C)C(=O)N[C@H](C(=O)N2CCCCC2)CC(=O)N(C)CC(=O)N(C)[C@@H](Cc2ccccc2)C(=O)N[C@@H](C(C)C)C(=O)N(C)[C@@H](CC(C)C)C(=O)N[C@@H]([C@@H](C)O)C1=O` [pd418] ([Sar][NMeF]V[NMeL]T[Gly(N-(CH2)2OEt)][NMeF][NMeL]S(tBu)[NMeL]D-Piperidide; lactam N-11), for which the Papp A→B at 180 min was 1.5 ×10⁻⁶ cm/s.

Compound `CCCCN1CC(=O)N(C)[C@@H](CC(C)C)C(=O)N[C@H](C(=O)N2CCCCC2)CC(=O)N(C)[C@@H](CC)C(=O)N[C@@H](CC(C)C)C(=O)N(C)[C@@H](CC(C)C)C(=O)N(C)[C@@H](Cc2ccccc2)C(=O)N[C@@H](CC)C(=O)N(C)[C@@H](Cc2ccccc2)C(=O)N(CCOCC)CC(=O)N[C@@H]([C@@H](C)O)C1=O` [pd419] ([NMeAbu]L[NMeL][NMeF][Abu][NMeF][Gly(N-(CH2)2OEt)]T[NBuGly][NMeL]D-Piperidide; lactam N-11) gave a Papp A→B at 180 min of 2.3 ×10⁻⁶ cm/s.

In the case of `CC[C@H]1C(=O)N(C)[C@@H](Cc2ccccc2)C(=O)N[C@@H](C)C(=O)N(C)[C@@H](CC(C)C)C(=O)N(C)[C@@H](CC)C(=O)N[C@@H]([C@@H](C)O)C(=O)N(CCOc2ccccc2)CC(=O)N(C)[C@@H](CC(C)C)C(=O)N[C@H](C(=O)N2CCCCC2)CC(=O)N(C)[C@@H](C(C)C)C(=O)N[C@@H](CC(C)C)C(=O)N1C` [pd420] ([NMeV]L[NMeAbu][NMeF]A[NMeL][NMeAbu]T[X9][NMeL]D-Piperidide; lactam N-11), the Papp A→B at 180 min came to 4.5 ×10⁻⁶ cm/s.

In turn, `CC[C@H]1C(=O)N[C@@H]([C@@H](C)O)C(=O)N(C)CC(=O)N(C)[C@@H](Cc2ccccc2)C(=O)N(C)[C@@H](CC)C(=O)N[C@@H](COC(C)(C)C)C(=O)N(C)[C@@H](CC(C)C)C(=O)N[C@H](C(=O)N2CCCCC2)CC(=O)N(CCOc2ccccc2)CC(=O)N(C)[C@@H](CC(C)C)C(=O)N[C@@H](CC(C)C)C(=O)N1C` [pd421] ([X9][NMeL]L[NMeAbu]T[Sar][NMeF][NMeAbu]S(tBu)[NMeL]D-Piperidide; lactam N-11) returned a Papp A→B at 180 min of 1.3 ×10⁻⁶ cm/s.

`CCCCN1CC(=O)N(C)[C@@H](C)C(=O)N[C@@H](COC(C)(C)C)C(=O)N(C)[C@@H](CC(C)C)C(=O)N(CCOc2ccccc2)CC(=O)N[C@H](C(=O)N2CCCCC2)CC(=O)N[C@H](CC(C)C)C(=O)N(C)[C@@H](Cc2ccccc2)C(=O)N[C@@H](CC(C)C)C(=O)N(C)[C@@H](CC)C(=O)N[C@@H]([C@@H](C)O)C1=O` [pd422] ([dL][NMeF]L[NMeAbu]T[NBuGly][NMeA]S(tBu)[NMeL][X9]D-Piperidide; lactam N-11) returned a Papp A→B at 180 min of 1 ×10⁻⁶ cm/s.

Consider `CC[C@H](C)[C@@H]1NC(=O)[C@H](CC(C)C)N(C)C(=O)[C@@H](C)NC(=O)C[C@@H](C(=O)N2CCCCC2)NC(=O)[C@H](CC)N(C)C(=O)[C@H](Cc2ccccc2)N(C)C(=O)[C@H](COC(C)(C)C)NC(=O)[C@H](CC(C)C)N(C)C(=O)[C@H](CC)N(C)C(=O)[C@H]([C@@H](C)O)NC(=O)CN(CCOc2ccccc2)C1=O` [pd423] ([dA][NMeL]I[X9]T[NMeAbu][NMeL]S(tBu)[NMeF][NMeAbu]D-Piperidide; lactam N-11), for which the Papp A→B at 180 min amounted to 1 ×10⁻⁶ cm/s.

Regarding `CC[C@@H]1NC(=O)[C@H](Cc2ccccc2)N(C)C(=O)[C@H](CC(C)C)N(C)C(=O)[C@H](CC(C)C)NC(=O)[C@H](CC)N(C)C(=O)C[C@@H](C(=O)N2CCCCC2)NC(=O)[C@H](CC(C)C)N(C)C(=O)CN(C)C(=O)[C@H]([C@@H](C)O)NC(=O)CN(CCOc2ccccc2)C(=O)[C@H](CC(C)C)N(C)C1=O` [pd424] ([NMeAbu]L[NMeL][NMeF][Abu][NMeL][X9]T[Sar][NMeL]D-Piperidide; lactam N-11), the Papp A→B at 180 min is 1.2 ×10⁻⁶ cm/s.

Consider `CCCN1CC(=O)N(C)[C@@H](CC(C)C)C(=O)N[C@H](C(=O)N2CCCCC2)CC(=O)N(C)[C@@H](C)C(=O)N[C@@H](COC[C@@H](C)O)C(=O)N(C)[C@@H](CC(C)C)C(=O)N(C)[C@@H](Cc2cccc(Cl)c2)C(=O)N[C@@H](CC(C)C)C(=O)N(C)[C@@H](Cc2ccccc2)C(=O)N(C)[C@@H]([C@@H](C)CC)C(=O)N[C@@H]([C@@H](C)O)C1=O` [pd425] ([NMeA]S(Propyl(2R-OH))[NMeL][NMePhe(3-Cl)]L[NMeF][NMeI]T[NPrGly][NMeL]D-Piperidide; lactam N-11), for which the Papp A→B at 180 min was found to be 1.2 ×10⁻⁶ cm/s.
